Test results published in DBAASP.
≈ marks a conversion by molar mass, not a printed value. Where “and” joins values, the source holds several entries; their conditions need not be identical. Identical values can stand only once.

Assays:
Experiment in all cases: ≥ marks a high value that may be exact or a test limit, other limits are often not marked, values filed in µg/mL are converted to µM
Escherichia coli C25 = test system: Escherichia coli C25
[1] = test system: Staphylococcus aureus ATCC 25923
[2] = test system: Escherichia coli ATCC 25922
[3] = test system: Listeria monocytogenes KCTC 19111
[4] = test system: Pseudomonas aeruginosa ATCC 15692
[5] = test system: Salmonella typhimurium KCTC 1926
[6] = test system: Staphylococcus epidermidis KCTC 1917
[7] = test system: Acinetobacter baumannii MTCC 9829
[8] = test system: Alcaligenes faecalis MTCC 1937
[9] = test system: Alkalihalobacillus alcalophilus MTCC 860
[10] = test system: Bordetella bronchiseptica MTCC 6837
[11] = test system: Citrobacter freundii MTCC 1658
[12] = test system: Citrobacter koseri MTCC 1657
[13] = test system: Corynebacterium glutamicum MTCC 2679
[14] = test system: Enterococcus faecalis MTCC 439
[15] = test system: Escherichia coli K12 MG1655
[16] = test system: Haemophilus influenzae MTCC 621
[17] = test system: Klebsiella aerogenes MTCC 111
[18] = test system: Klebsiella oxytoca MTCC 2275
[19] = test system: Klebsiella pneumoniae MTCC 7407
[20] = test system: Pluralibacter gergoviae MTCC 3826
[21] = test system: Proteus mirabilis MTCC 3158
[22] = test system: Proteus vulgaris MTCC 1771
[23] = test system: Pseudomonas aeruginosa MTCC 3542
[24] = test system: Salmonella enterica MTCC 9844
[25] = test system: Salmonella enterica subsp. enterica serovar Typhimurium ATCC 14028
[26] = test system: Shigella boydii MTCC 11947
[27] = test system: Shigella flexneri MTCC 1457
[28] = test system: Staphylococcus aureus MTCC 3160
[29] = test system: Staphylococcus haemolyticus MTCC 3383
[30] = test system: Stenotrophomonas maltophilia MTCC 1890
[31] = test system: Vibrio cholerae MTCC 3904
Escherichia coli BW25113 = test system: Escherichia coli BW25113
Escherichia coli J2210 = test system: Escherichia coli J2210
Escherichia coli JJ2489 = test system: Escherichia coli JJ2489
Escherichia coli JW0013 = test system: Escherichia coli JW0013
[32] = test system: Escherichia coli JW0368 ΔsbmA
[33] = test system: Escherichia coli JW2778 ΔygdD
Escherichia coli MC1041 = test system: Escherichia coli MC1041
Escherichia coli = test system: Escherichia coli
[34] = test system: Salmonella enterica serovar Tennessee
[35] = test system: Salmonella enterica subsp. enterica serovar Enteritidis MH91989
[36] = test system: Salmonella enterica subsp. enterica serovar Infantis
[37] = test system: Salmonella enterica subsp. enterica serovar Newport
[38] = test system: Salmonella typhimurium SL1344
[39] = test system: Bacillus subtilis MTCC 14416
[40] = test system: Enterococcus faecalis ATCC 29212
Escherichia coli MG1655 = test system: Escherichia coli MG1655
[41] = test system: Pseudomonas aeruginosa ATCC 27853
[42] = test system: Staphylococcus aureus ATCC 43300
[43] = test system: Staphylococcus aureus MTCC 9542
Vibrio cholerae = test system: Vibrio cholerae

## CC[C@H](C)[C@H](NC(=O)CNC(=O)[C@H](CCCN=C(N)N)NC(=O)[C@H](Cc1ccc(O)cc1)NC(=O)[C@@H](NC(=O)[C@H](CCCN=C(N)N)NC(=O)[C@H](Cc1ccccc1)NC(=O)[C@H](Cc1c[nH]c2ccccc12)NC(=O)[C@H](CCCCN)NC(=O)[C@@H](N)CCCCN)C(C)C)C(=O)N[C@@H](Cc1ccc(O)cc1)C(=O)N[C@@H](CCCN=C(N)N)C(=O)N[C@@H](CCCN=C(N)N)C(=O)N[C@@H](CCCN=C(N)N)C(N)=O [KKWFRVYRGIYRRR]
Escherichia coli C25
  MIC: ≥ 63 µM
[1]
  MIC: 16 µM (≈ 31.7 µg/mL)

## NCCCC[C@H](NC(=O)[C@H](Cc1ccc(O)cc1)NC(=O)[C@H](Cc1c[nH]c2ccccc12)NC(=O)[C@H](CCCCN)NC(=O)[C@H](CCCCN)NC(=O)[C@H](Cc1ccc(O)cc1)NC(=O)[C@H](Cc1c[nH]c2ccccc12)NC(=O)[C@@H](N)CCCCN)C(N)=O [KWYKKWYK]
[2]
  MIC: 4 µM (≈ 4.91 µg/mL)
[3]
  MIC: 8 µM (≈ 9.83 µg/mL)
[4]
  MIC: 8 µM (≈ 9.83 µg/mL)
[5]
  MIC: 8 µM (≈ 9.83 µg/mL)
[1]
  MIC: 64 µM (≈ 78.6 µg/mL)
[6]
  MIC: 8 µM (≈ 9.83 µg/mL)

## CSCC[C@H](NC(=O)[C@H](CCCN=C(N)N)NC(=O)[C@H](Cc1cnc[nH]1)NC(=O)[C@H](Cc1c[nH]c2ccccc12)NC(=O)[C@H](CCCN=C(N)N)NC(=O)CNC(=O)[C@H](Cc1c[nH]c2ccccc12)NC(=O)[C@H](CCCN=C(N)N)NC(=O)[C@@H](N)CCCN=C(N)N)C(=O)N[C@@H](CCCN=C(N)N)C(=O)N[C@@H](CCCN=C(N)N)C(=O)N[C@@H](CCCN=C(N)N)C(=O)NCC(=O)N[C@@H](CCCN=C(N)N)C(=O)O [RRWGRWHRMRRRGR]
[7]
  MIC: ≥ 63.3 µM
[8]
  MIC: ≥ 63.3 µM
[9]
  MIC: 15.8 µM (≈ 32 µg/mL)
[10]
  MIC: ≥ 63.3 µM
[11]
  MIC: ≥ 63.3 µM
[12]
  MIC: 7.91 µM (≈ 16 µg/mL)
[13]
  MIC: 1.98 µM (≈ 4 µg/mL)
[14]
  MIC: ≥ 63.3 µM
[15]
  MIC: ≥ 63.3 µM
[16]
  MIC: ≥ 63.3 µM
[17]
  MIC: ≥ 63.3 µM
[18]
  MIC: 31.6 µM (≈ 64 µg/mL)
[19]
  MIC: ≥ 63.3 µM
[20]
  MIC: ≥ 63.3 µM
[21]
  MIC: ≥ 63.3 µM
[22]
  MIC: ≥ 63.3 µM
[23]
  MIC: ≥ 63.3 µM
[24]
  MIC: ≥ 63.3 µM
[25]
  MIC: > 63.3 µM
[26]
  MIC: 31.6 µM (≈ 64 µg/mL)
[27]
  MIC: 31.6 µM (≈ 64 µg/mL)
[28]
  MIC: ≥ 63.3 µM
[29]
  MIC: 1.98 µM (≈ 4 µg/mL)
[30]
  MIC: ≥ 63.3 µM
[31]
  MIC: ≥ 63.3 µM

## CC[C@H](C)[C@H](NC(=O)[C@@H]1CCCN1C(=O)[C@H](CCCCN)NC(=O)[C@@H]1CCCN1C(=O)[C@@H]1CCCN1C(=O)[C@@H](NC(=O)[C@@H]1CCCN1C(=O)[C@H](CCCN=C(N)N)NC(=O)[C@@H]1CCCN1C(=O)[C@H](CCCCN)NC(=O)[C@H](Cc1ccc(O)cc1)NC(=O)[C@H](CO)NC(=O)CNC(=O)[C@H](CCCCN)NC(=O)[C@H](CC(=O)O)NC(=O)[C@@H](N)C(C)C)[C@@H](C)O)C(=O)N[C@@H](Cc1ccc(O)cc1)C(=O)N[C@@H](CC(N)=O)C(=O)N[C@@H](CCCN=C(N)N)C(=O)N[C@@H](CC(N)=O)C(=O)O [VDKGSYKPRPTPPKPIYNRN]
Escherichia coli BW25113
  MIC: 0.075 µM (≈ 0.175 µg/mL)
Escherichia coli J2210
  MIC: 0.208 µM (≈ 0.484 µg/mL)
Escherichia coli JJ2489
  MIC: 0.104 µM (≈ 0.242 µg/mL)
Escherichia coli JW0013
  MIC: 0.075 µM (≈ 0.175 µg/mL)
[32]
  MIC: 0.834 µM (≈ 1.94 µg/mL)
[33]
  MIC: 0.208 µM (≈ 0.484 µg/mL)
Escherichia coli MC1041
  MIC: 0.15 µM (≈ 0.349 µg/mL)
Escherichia coli
  MIC: 0.197 µM and 0.3 µM
[34]
  MIC: 0.3 µM (≈ 0.698 µg/mL)
[35]
  MIC: 0.6 µM (≈ 1.4 µg/mL)
[36]
  MIC: 0.3 µM (≈ 0.698 µg/mL)
[37]
  MIC: 0.075 µM (≈ 0.175 µg/mL)
[38]
  MIC: 0.15 µM (≈ 0.349 µg/mL)

## CC[C@H](C)[C@@H]1NC(=O)[C@H](CCCCN)NC(=O)[C@@H](NC(=O)[C@H](CC(C)C)NC(=O)[C@@H](NC(=O)[C@H](CCC(N)=O)NC(=O)[C@@H]2CCCN2C(=O)[C@H](CC(C)C)NC(=O)[C@H](Cc2ccccc2)NC(=O)[C@H](CC(N)=O)NC(=O)[C@H](C)NC(=O)[C@H](C)NC(=O)[C@H](CC(C)C)NC(=O)CNC(=O)[C@H](C)NC(=O)[C@@H](NC(=O)[C@@H](N)Cc2c[nH]c3ccccc23)[C@@H](C)CC)[C@@H](C)CC)CSSC[C@@H](C(N)=O)NC(=O)[C@H](CCCCN)NC(=O)[C@H](CCCN=C(N)N)NC(=O)[C@H](C)NC1=O [WIAGLAANFLPQILCKIARKC]
[39]
  MIC: 21.5 µM (≈ 49.9 µg/mL)
[40]
  MIC: 21.5 µM (≈ 49.9 µg/mL)
Escherichia coli MG1655
  MIC: ≥ 42.9 µM
[41]
  MIC: > 42.9 µM
[42]
  MIC: 10.7 µM (≈ 25 µg/mL)
[43]
  MIC: 5.37 µM (≈ 12.5 µg/mL)
Vibrio cholerae
  MIC: 10.7 µM (≈ 25 µg/mL)
